Experimental findings from patent US4451399A, “Imidazolecarboxylic acid derivatives” (priority 1979, dated 1984) are described below.

The test system of series [1] is Pseudomonas aeruginosa AJ 2116. Briefly: Minimum Inhibitory Concentration (MIC) against Pseudomonas aeruginosa AJ 2116 in a culture. As to conditions: AJ2116, minimum concentration required to inhibit growth of test organism in a culture. The format is cell-based. As for the experimental part: Antibacterial activity was determined with regards to the compounds produced in the examples described above. Some of Comparative Minimum Inhibitory Concentrations (MIC) (the minimum concentration of the compound in micrograms per milliliter required to inhibit the growth of the test organism in a culture) obtained using Pseudomonas aeruginosa AJ 2116 as the test organism, are presented in Table 5.

The nature of series [2]: Concentration in blood after oral administration to mice (oral absorption). The format is in vivo. As to conditions: Mouse (ICR 5W male), oral 50 mg/kg; for concentration at 0.5 h: 30 minutes; for concentration at 1 h: 60 minutes; for concentration at 1.5 h: 90 minutes. The source says:
The imidazolecarboxylic acid derivatives of the present invention have a good oral absorption, as is evident from Table 6.
Concentration in Blood (μg/ml)

Converted amounts (≈) assume the structure as drawn. Where only a bound is given, the exact number is not on record here.

Compound `CC1(C)S[C@@H]2[C@H](NC(=O)[C@H](NC(=O)c3[nH]cnc3Cl)c3ccccc3)C(=O)N2[C@H]1C(=O)O` [Example 3] registered an MIC in series [1] of 25 µg/mL (≈ 52.3 µM).

For `CC1(C)S[C@@H]2[C@H](NC(=O)[C@H](N)c3ccccc3)C(=O)N2[C@H]1C(=O)O` [Ampicillin, reference compound], in series [2], the concentration at 0.5 h worked out at 81 µg/mL, the concentration at 1 h amounted to 306 µg/mL and the concentration at 1.5 h came to 41 µg/mL. Besides, the MIC in series [1] is greater than 500 µg/mL.

For `CC1(C)S[C@@H]2[C@H](NC(=O)[C@H](NC(=O)c3[nH]cnc3[N+](=O)[O-])c3ccccc3)C(=O)N2[C@H]1C(=O)O` [Example 1, D-α-(4-nitroimidazole-5-carboxyamide) benzyl penicillin], in series [1], inhibition of growth (MIC) required 12.5 µg/mL (≈ 25.6 µM).

In turn, `CC1(C)S[C@@H]2[C@H](NC(=O)C(C(=O)O)c3ccccc3)C(=O)N2[C@H]1C(=O)O` (stereo partly drawn) [Carbenicillin, reference compound] gave an MIC in series [1] of 100 µg/mL (≈ 264 µM).

For `Cc1nc(S)[nH]c1C(=O)N[C@@H](C(=O)N[C@@H]1C(=O)N2[C@@H]1SC(C)(C)[C@@H]2C(=O)O)c1ccccc1` [Example 8], the MIC in series [1] was determined as 25 µg/mL (≈ 51.1 µM).

As to `CCOC(=O)c1nc[nH]c1C(=O)N[C@@H](C(=O)N[C@@H]1C(=O)N2[C@@H]1SC(C)(C)[C@@H]2C(=O)O)c1ccccc1` [Example 13, D-α-(4-ethoxycarbonylimidazole-5-carboxyamide) benzylpenicillin], in series [2], the concentration at 0.5 h was 340 µg/mL, the concentration at 1 h turned out to be 97 µg/mL and the concentration at 1.5 h amounted to 40 µg/mL. In addition, in series [1], 25 µg/mL (≈ 48.5 µM) was the least that counted as inhibitory (MIC).
